{"source": "patent US20100130528A1", "about": "“ADAMANTANE MODULATORS OF NMDA RECEPTOR AND/OR 5HT3 RECEPTOR” (AUSPEX PHARMACEUTICALS, INC., priority 2008, published 2010)", "origin": "cited, not measured here", "key": {"[1]": {"details": "in man"}, "[2]": {"details": "in vivo"}}, "data": [{"smiles": "CC12CC3CC(C)(C1)CC(N)(C3)C2", "note": "[memantine, 1-amino-3,5-dimethyl-adamantane]", "values": [{"measurement": "circulating memantine-related material present as the parent compound", "setting": "[1]", "result": "about 80%"}, {"measurement": "cytochrome P450 catalysed metabolism", "setting": "cytochrome P450", "result": "No cytochrome P450 catalysed metabolism has been detected"}, {"measurement": "adverse effects", "setting": "[2]", "result": "fatigue, pain, hypertension, dizziness, headache, constipation, vomiting, confusion, somnolence, hallucination, cough, and dyspnea"}]}]}
